In paper PMC5570892, “Indole-based perenosins as highly potent HCl transporters and potential anti-cancer agents” (Scientific Reports, 2017):

Columns and labels:
[1] = system: MDA-MB-231 cells; test: Annexin-V flow cytometric apoptosis assay; type: cell-based, human
Method: The specific late onset of affecting cell viability induced by perenosins is interesting, and to the best of our knowledge this phenomenon has not been observed for other anion transporters. […] It is known that synthetic transporters can disrupt ion homeostasis in cells and induce cell death via an apoptotic pathway, [22], [32], [63], [64].
S11.3 Apoptosis Evaluation through Annexin-V Assay
MDA-MB-231 cells (1x10^5 cells) were seeded in 6-well plates and, after 24 h, they were treated with […]
Afterwards, cells were detached, centrifuged at 300 g for 5 min and resuspended in 1 ml of 1X PBS-1% FBS. Then, 100 µl of cell suspension were mixed with Annexin-V kit buffer (1:1; Muse Annexin V & Dead Cell Assay, Merck Millipore, Merck KGaA, Darmstadt, Germany). After 20 min incubation at room temperature, cells were examined on the Muse™ Cell Analyzer (Merck Millipore). All the conditions were assessed in three independent experiments. Results are shown as the mean value ± S.D. and representative results are shown in the […]
Figure S154. Flow cytometry of MDA-MB-231 cells treated with IC50 concentrations of compound 2 and 6 for 48 and 72 hours plus 10 µM of compound 6 for 72 h. Axes show Annexin-V binding versus […]
(1 picture or pasted object on this page, not shown here)

[2] = Cationophore coupled KCl efflux ISE assay (valinomycin or monensin); type: biochemical; details: perenosins 0.1 mol%, prodigiosin 0.01 mol%, monensin 0.1 mol%, pH 7.2
Method: Herein, we employed two recently reported complementary cationophore coupled assays[19] to unambiguously confirm H^+/Cl^− symport facilitated by perenosins is a strictly inseparable process. Briefly, unilamellar vesicles were prepared with an internal solution of KCl (300 mM) and an external solution of K2SO4 (150 mM), buffered to pH 7.2 with potassium phosphate salts (5 mM). The naturally occurring cationophores valinomycin and monensin were either added alone, or in combination with a perenosin and the resulting chloride efflux, driven by a large chloride concentration gradient, was monitored using a chloride ISE. […] In contrast, monensin functions as an electroneutral transporter. […]
Figure S130. […] The final chloride efflux reading was taken a t 9 mins and was used as the 100% chloride efflux value. […]
The lipid stock solution was diluted with the external buffer solution to a standard volume (5 mL), to afford a solution with a lipid concentration of 1 mM. […] The compounds were added as a DMSO solution (0.1 mol% (with respect to lipid), 10 μL) to start the experiment and the resulting chloride efflux was monitored using a chloride selective electrode over 5 minutes. After this time, detergent (50 μL of Triron X-100 (11 w%) in H2O:DMSO (7:1 v/v)) was added to lyse the vesicles and after 7 minutes a final chloride efflux reading was taken. […]

[3] = Stability in aqueous solution by UV-Vis; type: physicochemical; details: hexafluorophosphate buffered DMSO:water 50:50, pH 7.4, after 6 hours
Method: S7.1 Stability in Aqueous Solution
Stability studies were performed for the perenosins in aqueous solution using UV-Vis spectroscopy to probe the lifetime of compounds 1d and 2-8 over the course of the transport experiments. The receptors (10 μL, 25 mM) were added to a hexafluorophosphate buffered (100 mM) DMSO:water 50:50 solution (4990 μL) and the pH was adjusted to either 7.2 or 4.6 using hexafluorophosphoric acid. Spectra were collected at 1 minute intervals over a period of 30 minutes.
Figure S50. Absorbance spectra taken over 30 minutes of 1d (25 mM) in a hexafluorophosphate buffered (100 mM) DMSO:water 50:50 mixture. a) pH 7.2 b) pH 4.6 […]
Figure S51. Absorbance spectra taken over 30 minutes of 2 (25 mM) in a hexafluorophosphate […]
The spectra obtained at pH 7.2 for compounds 1d and 2-8 show no notable change in the […]
conditions. However, the spectra obtained at pH 4.6 for compounds 1d and 2-4 show a decreasing peak at ~400 nm corresponding to the perenosins, and an increasing peak at ~300 nm corresponding to the breakdown product (both are marked with an arrow). The change in spectra […]
Spectra were collected periodically over 72 hours to monitor the change in the UV -vis absorbance.
Figure S58. Absorbance spectra taken periodically over 72 hours of 1d (25 mM) in a hexafluorophosphate buffered (100 mM) DMSO:water 50:50 mixture at pH 7.4 […]

With `CCCCCc1cc2cc(C)cc(/N=C/c3[nH]c(C)cc3C)c2[nH]1` [Perenosin 2] the “apoptosis induction (Annexin-V)” value ([1]; at IC50 value, 48 h and 72 h) was “clearly induces cell death by apoptosis”.
With `CCCCCc1cc2cc(C)cc(/N=C/c3[nH]c4ccccc4c3C)c2[nH]1` [Perenosin 8] the “chloride efflux coupled to monensin” value [2] was “do not facilitate chloride transport”.
With `CCCCCc1cc(/N=C/c2[nH]c3ccccc3c2C)c2[nH]ccc2c1` [Perenosin 7] the “chloride efflux coupled to monensin” value [2] was “do not facilitate chloride transport”.
With `CCCCCc1cc2cc(C)cc(/N=C/c3[nH]c(C)c(CCCCC)c3C)c2[nH]1` [Perenosin 6] the “apoptosis induction (Annexin-V)” value ([1]; 10 µM) was “increase in both early and late apoptotic cell populations”, the “apoptosis induction (Annexin-V)” value ([1]; at IC50 value, 48 h and 72 h) was “slight increase in apoptotic cells” and the “solubility during 72 h stability study” value [3] was “poor solubility”.
